Values quoted from earlier work in patent US11026933B2, “Compositions and methods for treatment of cancer” (Children's Hospital Medical Center, priority 2016, dated 2021).

Key:
FOXM1 [1] = target: T1, FOXM1 (Homo sapiens, UniProt Q08050); details: Halasi and Gartel, 2013
T1 sequence (Q08050 1-763): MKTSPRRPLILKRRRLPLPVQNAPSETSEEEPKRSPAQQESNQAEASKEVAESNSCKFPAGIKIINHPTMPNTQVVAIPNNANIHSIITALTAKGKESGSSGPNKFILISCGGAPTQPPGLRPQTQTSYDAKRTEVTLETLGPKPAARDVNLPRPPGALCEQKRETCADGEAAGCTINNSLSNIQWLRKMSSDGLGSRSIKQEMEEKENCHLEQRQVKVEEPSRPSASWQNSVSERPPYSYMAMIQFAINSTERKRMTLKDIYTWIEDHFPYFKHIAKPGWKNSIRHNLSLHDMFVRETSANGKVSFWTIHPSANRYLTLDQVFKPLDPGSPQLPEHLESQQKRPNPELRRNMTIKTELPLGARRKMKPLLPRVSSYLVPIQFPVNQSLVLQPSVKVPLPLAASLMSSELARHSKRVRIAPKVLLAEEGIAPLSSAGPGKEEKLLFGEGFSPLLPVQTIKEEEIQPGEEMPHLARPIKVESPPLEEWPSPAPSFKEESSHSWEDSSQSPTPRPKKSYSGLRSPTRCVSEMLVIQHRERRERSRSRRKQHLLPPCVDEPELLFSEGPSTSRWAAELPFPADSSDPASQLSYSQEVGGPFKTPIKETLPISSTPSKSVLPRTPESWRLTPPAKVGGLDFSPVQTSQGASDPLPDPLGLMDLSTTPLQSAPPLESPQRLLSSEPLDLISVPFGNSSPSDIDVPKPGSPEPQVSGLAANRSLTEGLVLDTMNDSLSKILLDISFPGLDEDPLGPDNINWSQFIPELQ

proteasome = details: Halasi and Gartel, 2013
FOXM1 [2] = target: T1, FOXM1; details: Halasi and Gartel, 2013; remark: listed apart in the source
FOXM1 [3] = target: T1, FOXM1; details: Gormally et al., 2014

Row | FOXM1 binding to DNA (FOXM1 [3]) | binding to FOXM1 protein (FOXM1 [3]) | Compound | inhibition of FOXM1 in cultured tumor cells (FOXM1 [1]) | proteasome inhibition (proteasome) | inhibition of FOXM1 in mouse tumor models (FOXM1 [2])
1 | – | – | C=C(NC(=O)C(=C)NC(=O)c1csc(C2=N[C@@H]3c4csc(n4)[C@H]4NC(=O)c5csc(n5)[C@H]([C@](C)(O)[C@@H](C)O)NC(=O)[C@H]5CSC(=N5)/C(=C/C)NC(=O)[C@H]([C@@H](C)O)NC(=O)c5csc(n5)[C@]3(CC2)NC(=O)[C@H](C)NC(=O)C(=C)NC(=O)[C@H](C)NC(=O)[C@H]([C@@H](C)CC)N[C@@H]2C=Cc3c([C@H](C)O)cc(nc3[C@H]2O)C(=O)O[C@@H]4C)n1)C(N)=O [thiostrepton] | inhibited FOXM1 | found to be proteasome inhibitors | inhibited FOXM1
2 | – | – | C=C(NC(=O)C(=C)NC(=O)c1csc(C2=N[C@@H]3c4csc(n4)[C@H]4NC(=O)c5csc(n5)[C@H]([C@](C)(O)[C@@H](C)O)NC(=O)[C@H]5CSC(=N5)/C(=C/C)NC(=O)[C@H]([C@@H](C)O)NC(=O)c5csc(n5)[C@]3(CC2)NC(=O)[C@H](C)NC(=O)C(=C)NC(=O)C(=C)NC(=O)[C@H](C(C)C)N[C@@H]2C=Cc3c([C@H](C)O)cc(nc3[C@H]2O)C(=O)O[C@@H]4C)n1)C(N)=O [Siomycin A] | inhibited FOXM1 | found to be proteasome inhibitors | inhibited FOXM1
3 | blocked FOXM1 binding to DNA | directly bound to FOXM1 protein | Nc1c(C(=O)Nc2ccc(F)cc2)sc2nc(-c3cccs3)cc(C(F)(F)F)c12 [FDI-6] | – | – | –
